Common to all, as to assay type: cell-based
The test system of one test is HSV-1(KOS)gL86. Briefly: Entry of HSV-1(KOS)gL86 into HEp-2 cells (beta-galactosidase, OD600). The method, then:
After attachment of HEp2 cells to culture wells, n-docosanol-vehicle, vehicle alone, or no agent (control) was added. Five to six hours after infection, the cells were processed, X-gal was added, and the absorbance at 600 nm was determined.
Twenty-four hours before infection, cultured cells were seeded into 24-well (16-mm) plates at 2.5×10^6 cells/well in 0.5 ml cDMEM supplemented with 10% fetal bovine serum (FES). After cell attachment (4-6 h later) heparin, n-docosanol-surfactant, or surfactant alone was added to the cells in 0.5 ml DMEM/10% FES. The agents were dissolved in the medium at two times the desired final concentration. For infection, 0.7 ml of medium was removed from each well and 25 μl of virus suspension was added to the remaining 0.3 ml to give a virus dose of at least 20 p.f.u./cell The plates were rocked at 37° C. for 3 h and then put in a 37° C. […]
At 5-6 h after infection, the cells were fixed with PES containing 2% formaldehyde and 0.2% glutaraldehyde, washed, then permeabilized with 0.02% NP-40, 0.01% deoxycholate and 2 mM MgCl2. […] To quantify the amount of color in each well the glycerol was removed from all wells that were then washed 3× with distilled H2O. DMSO (0.6 ml) was added to solubilize the dye and, after transferring 100 μl of each sample well from the 24-well plate to a 96-well plate, the OD600 was recorded using a 96-well plate reader. […]

A further test relates to wild-type HSV-2. Briefly: Plaque formation by wild-type HSV-2 in Vero cells. The settings on record: FIG. 7, Panel A. The method, then:
(§1) FIG. 7 depicts data showing that n-docosanol inhibits acyclovir-resistant HSV-2. Vero cells were cultured in 35-mm wells (6×10^5 cells per well) in medium alone (=none) or in the presence of the indicated concentration of acyclovir, n-docosanol-Pluronic F-68 suspension or control suspension (Pluronic F-68 only). The cultures were inoculated 24 hours later with 150 PFU of either wild-type HSV-2 or an acyclovir-resistant laboratory isolate from the wild-type HSV-2 that was plaque purified and passaged in 20 μg/ml acyclovir 44 hours later, the plates were incubated, fixed, stained, and scored for numbers of plaques. The data presented are means of plaques scored from duplicate cultures. The percent inhibition observed in cultures treated with acyclovir or n-docosanol relative to untreated control cultures is denoted in parentheses.

The subject of test [1] is acyclovir-resistant HSV-2. Briefly: Plaque formation by acyclovir-resistant HSV-2 in Vero cells. The note with it: FIG. 7, Panel B. As to the method: as §1
The test system of another test is HSV-I. Kind of test: Binding of [3H]HSV-I to Vero cells. The settings on record: virus at 2 p.f.u./cell; n-docosanol 15 mM. An excerpt:
Attachment of HSV-I to specific cell surface receptors is unaffected in n-docosanol-treated cells. Previous studies have verified that attachment of HSV-1 to specific cell surface receptors is unaffected in n-docosanol-treated cells. […] Heparin inhibited this interaction 96%.

Regarding `Nc1nc2c(ncn2COCCO)c(=O)[nH]1` [acyclovir, reference compound], the “inhibition of the beta-galactosidase signal” value in the test with HSV-1(KOS)gL86 is recorded as “not inhibited”. Besides, the “inhibition of plaque formation” value is reported as “inhibit plaque formation by wild type HSV-2 equally” in the test on wild-type HSV-2 and “not inhibited” in test [1].

For the compound Heparin [reference compound], in the test on HSV-I, the “inhibition of [3H]HSV-I binding” value came out at 96%. In the test with HSV-1(KOS)gL86 (examined between 1 and 10 μg/ml), the “concentration at which inhibition appeared to be complete” value amounted to 6 µg/mL.

The values above are taken from patent publication US20040033982A1, “Viral inhibition by n-docosanol” (priority 2001, published 2004).
